Like-named read-outs stand apart in the source and are kept apart here.
Tests used:
[1] = Cytotoxicity assay (CellTiter-Glo) on normal human dermal fibroblasts; format: cell-based; details: normal human dermal fibroblasts (NHDF)
Protocol: The cytotoxicity of the compounds was evaluated in nontumor normal human dermal fibroblasts (NHDF) purchased from ATCC (PCS-201-012, Manassas, VA, USA). The cells were negatively tested for the presence of mycoplasma (cat. #: LT07-318 MycoAlert Mycoplasma Detection kit, Lonza). The cells were cultivated in DMEM high glucose 4.5 g/L medium (cat. #: R8758, Merck, Germany). The medium was supplemented with 10% fetal bovine serum (cat. #: F7524, Merck, Germany; inactivated at 56 °C for 30 min) and 1.0% of L-glutamine (cat. #: G7513, Merck, Germany) without antibiotics. Cells were seeded in 384-well format white micro plates (cat. #: 164610, Nunc, Thermo Fisher Scientific, USA) at a concentration of 60,000 cells per mL and left to rest overnight. Next day, 1 and 10 μM concentrations of the tested compounds were added in triplicates. The cells were cultivated at 37 °C and 5% CO2 for 72 h after which a luminescent cell viability assay (CellTiter-Glo 2.0, cat. #: Promega, Madison, USA) was added. The plate was left on a shaker (350 rpm) in the dark for 20 min at RT. Luminescence was measured by a Spark multimode reader from Tecan (Tecan Group Ltd., Switzerland). The signal of the compound-treated cells was related to the value of the untreated control, which was arbitrarily set to 100% viability.

[2] = Plasma stability assay, human plasma; format: in vitro ADME; details: pooled plasma, read-out: Plasma stability % remaining at 6 h, hum
Protocol: […] The reactions were terminated by adding 4 vol of ice-cold methanol, and the samples were then mixed vigorously, frozen at −20 °C for 1 h, and left overnight at 8 °C. After that, the samples were centrifuged, and the supernatant was analyzed by means of LC–MS/MS Sciex 6500 triple quadrupole (Sciex, Framingham, MA, USA). Zero time points were prepared by adding ice-cold methanol to the compound prior to the addition of the plasma.

[3] = Plasma stability assay, rat plasma; format: in vitro ADME
in vitro = in vitro ADME; details: human, Caco-2; for Papp A→B at 3 h, 5 µM: read-out: Caco-2 permeability Papp A–B
Protocol: A Transwell system consisting of two compartments separated by a monolayer of differentiated Caco-2 cells was employed for the intestinal permeability evaluation. Thanks to the ability of Caco-2 cells to become polarized, bidirectional transport (A–B and B–A) could be measured and the efflux ratio calculated.
The transepithelial bidirectional transport of tested compounds (5 μM, pH 7.4/7.4) across the Caco-2 monolayers was studied using the BD BioCoat HTS Caco-2 assay system (BD Biosciences, Bedford, MA) as described in detail elsewhere.[47] Aliquots were collected from the donor and acceptor compartment at the end of the transport period (3 h), the integrity of monolayers was verified using Lucifer Yellow dye, and the compounds were quantified using LC–MS/MS (Triple Quad 6500+, Sciex). The apparent permeability coefficient (Papp) was calculated from the following equation: Papp = (dQ/dt)/C0 × A, where dQ/dt is the rate of absorption of the drug across the cells, C0 is the donor compartment concentration at time zero, and A is the area of the monolayer. The efflux ratio was expressed as (Papp B–A)/(Papp A–B). Recovery (%) was determined as (total compound mass in donor and receiver compartments at the end of the incubation/initial compound mass in the donor compartment) × 100.

[4] = Microsomal stability, human liver microsomes; format: in vitro ADME; details: pooled liver microsomes, pH 7.4; human liver microsomes 0.5 mg/mL, 10 μM compound; read-out: Microsomal stability CLint, hum
Protocol: (§1) . Zero time points were prepared by adding ice-cold methanol to a mixture of the compound with cofactors prior to the addition of microsomes. […]. Intrinsic clearance (CLint) was calculated using the following formula: [drawing 1] where V = incubation volume per milligram of microsomal protein (μL/mg) and t1/2 = microsomal half-life.

[5] = Microsomal stability, rat liver microsomes; format: in vitro ADME; details: pH 7.4; rat liver microsomes
Protocol: as §1

[6] = 10 uM, read-out: NHDF viability at 10 uM (supplement csv)
[7] = 10 μM, untreated control = 100%, read-out: NHDF Viability 10 μM

remaining at 6 h, 5 μM ([2]; human plasma, 5 μM, 37 °C) [%]	remaining at 6 h, 5 μM [3] [%]	recovery at 3 h, 5 µM (in vitro) [%]	Papp A→B at 3 h, 5 µM (in vitro; 5 μM, pH 7.4/7.4, 3 h) [nm/s]	Papp B→A at 3 h, 5 µM (in vitro; 5 μM, pH 7.4/7.4, 3 h, read-out: Caco-2 permeability Papp B–A) [nm/s]	microsomal CLint at 10 µM [4] [µL/min/mg]	microsomal CLint at 10 µM [5] [µL/min/mg]	remaining at 6 h, 5 μM ([2]; human) [%]	SMILES	viability at 72 h, 1 µM [1] [%]	viability at 72 h, 10 µM [1, 6] [%]	viability at 72 h, 10 µM [1, 7] [%]
88	68	–	–	–	–	–	–	O=C(OC[C@H]1CCCN1)[C@@H]1[C@H]2C[C@H]3c4[nH]c5ccccc5c4CCN3C[C@@H]2CC[C@@H]1O [Compound 4a, 17-α-Hydroxyyohimban-16-α-carboxylic acid (R)-Pyrrolidin-2-ylmethyl Ester]	113	106	106
91 ± 5	80 ± 1	–	–	–	–	–	–	CNCCOC(=O)[C@@H]1[C@H]2C[C@H]3c4[nH]c5ccccc5c4CCN3C[C@@H]2CC[C@@H]1O [Compound 4c, 17-α-Hydroxyyohimban-16-α-carboxylic Acid 2-(Methylamino)ethyl Ester]	104	91	91
100 ± 1	87	101	10	20	–	–	–	O=C(OC1CCNCC1)[C@@H]1[C@H]2C[C@H]3c4[nH]c5ccccc5c4CCN3C[C@@H]2CC[C@@H]1O [Compound 4d, 17-α-Hydroxyyohimban-16-α-carboxylic Acid Piperidine-4-yl Ester]	107	104	104
118 ± 3	134 ± 1	–	–	–	4 ± 1	1 ± 1	–	O=C(OC[C@H]1CCN1)[C@@H]1[C@H]2C[C@H]3c4[nH]c5ccccc5c4CCN3C[C@@H]2CC[C@@H]1O [Compound 4g, 17-α-Hydroxyyohimban-16-α-carboxylic Acid (R)-Azetidin-2-ylmethyl Ester]	120	120	120
88 ± 3	62 ± 7	–	–	–	4 ± 1	1 ± 1	–	O=C(OC[C@@H]1CCNC1)[C@@H]1[C@H]2C[C@H]3c4[nH]c5ccccc5c4CCN3C[C@@H]2CC[C@@H]1O [Compound 4i, 17-α-Hydroxyyohimban-16-α-carboxylic Acid (R)-Pyrrolidin-3-ylmethyl Ester]	109	107	107
95 ± 5	110 ± 3	101	10	–	3 ± 2	1 ± 1	–	O=C(O[C@@H]1CCNC1)[C@@H]1[C@H]2C[C@H]3c4[nH]c5ccccc5c4CCN3C[C@@H]2CC[C@@H]1O [Compound 4k, 17-α-Hydroxyyohimban-16-α-carboxylic Acid (R)-Pyrrolidin-3-yl Ester]	99	91	91
100	80 ± 1	112	10	–	–	–	–	O=C(O[C@H]1CCNC1)[C@@H]1[C@H]2C[C@H]3c4[nH]c5ccccc5c4CCN3C[C@@H]2CC[C@@H]1O [Compound 4l, 17-α-Hydroxyyohimban-16-α-carboxylic Acid (S)-Pyrrolidin-3-yl Ester]	100	94	94
100 ± 3	70 ± 2	101	10	–	3 ± 2	–	–	O=C(OC1CNC1)[C@@H]1[C@H]2C[C@H]3c4[nH]c5ccccc5c4CCN3C[C@@H]2CC[C@@H]1O [Compound 4m, 17-α-Hydroxyyohimban-16-α-carboxylic Acid Azetidin-3-yl Ester]	77	77	77
97 ± 5	75	101	10	–	2 ± 1	3	–	N[C@H]1C[C@@H](OC(=O)[C@@H]2[C@H]3C[C@H]4c5[nH]c6ccccc6c5CCN4C[C@@H]3CC[C@@H]2O)C1 [Compound 4o, 17-α-Hydroxyyohimban-16-α-carboxylic Acid cis-3-Aminocyclobutyl Ester]	84	86	86

Second part, the compound before the results:

SMILES	remaining at 6 h, 5 μM ([2]; human plasma, 5 μM, 37 °C) [%]	remaining at 6 h, 5 μM [3] [%]	recovery at 3 h, 5 µM (in vitro) [%]	Papp A→B at 3 h, 5 µM (in vitro; 5 μM, pH 7.4/7.4, 3 h) [nm/s]	Papp B→A at 3 h, 5 µM (in vitro; 5 μM, pH 7.4/7.4, 3 h, read-out: Caco-2 permeability Papp B–A) [nm/s]	microsomal CLint at 10 µM [4] [µL/min/mg]	microsomal CLint at 10 µM [5] [µL/min/mg]	remaining at 6 h, 5 μM ([2]; human) [%]	viability at 72 h, 1 µM [1] [%]	viability at 72 h, 10 µM [1, 6] [%]	viability at 72 h, 10 µM [1, 7] [%]
O=C(OC[C@@H]1CCCN1)[C@@H]1[C@H]2C[C@H]3c4[nH]c5ccccc5c4CCN3C[C@@H]2CC[C@@H]1O [Compound 4b, 17-α-Hydroxyyohimban-16-α-carboxylic acid (S)-Pyrrolidin-2-ylmethyl Ester]	–	–	–	–	–	–	–	–	112	103	103
O=C(OC1CCCNC1)[C@@H]1[C@H]2C[C@H]3c4[nH]c5ccccc5c4CCN3C[C@@H]2CC[C@@H]1O (stereo partly drawn) [Compound 4e, 17-α-Hydroxyyohimban-16-α-carboxylic Acid Piperidine-3-yl Ester]	–	–	–	–	–	–	–	–	84	82	82
O=C(OCC1CNC1)[C@@H]1[C@H]2C[C@H]3c4[nH]c5ccccc5c4CCN3C[C@@H]2CC[C@@H]1O [Compound 4f, 17-α-Hydroxyyohimban-16-α-carboxylic Acid Azetidin-3-ylmethyl Ester]	–	–	–	–	–	–	–	–	119	119	119
O=C(OC[C@@H]1CCN1)[C@@H]1[C@H]2C[C@H]3c4[nH]c5ccccc5c4CCN3C[C@@H]2CC[C@@H]1O [Compound 4h, 17-α-Hydroxyyohimban-16-α-carboxylic acid (S)-Azetidin-2-ylmethyl Ester]	–	–	–	–	–	–	–	–	116	118	118
O=C(OC[C@H]1CCNC1)[C@@H]1[C@H]2C[C@H]3c4[nH]c5ccccc5c4CCN3C[C@@H]2CC[C@@H]1O [Compound 4j, 17-α-Hydroxyyohimban-16-α-carboxylic Acid (S)-Pyrrolidin-3-ylmethyl Ester]	92	76 ± 3	–	–	–	2	1 ± 1	–	104	102	102
O=C(N[C@H]1CCNC1)[C@@H]1[C@H]2C[C@H]3c4[nH]c5ccccc5c4CCN3C[C@@H]2CC[C@@H]1O [Compound 5a, 17-α-Hydroxyyohimban-16-α-carboxylic Acid (S)-N-(Pyrrolidin-3-yl)amide]	–	114 ± 2	–	–	–	–	–	100 ± 1	90	88	88
O=C(NC1CNC1)[C@@H]1[C@H]2C[C@H]3c4[nH]c5ccccc5c4CCN3C[C@@H]2CC[C@@H]1O [Compound 5b, 17-α-Hydroxyyohimban-16-α-carboxylic Acid N-(Azetidin-3-yl)amide]	–	–	–	–	–	–	–	–	88	88	88

From publication PMC11215778 (Journal of Medicinal Chemistry, 2024)
